# Experiments:
# [1] = target: T1, T-p53C-Y220C (Homo sapiens, UniProt P04637, M133L/N239Y/N268D/V203A/Y220C); test: Thermal denaturation using capillary DSC; format: binding; settings: increase in Tm on adding 250 μM of the test compound; 20 μM protein
# T1 construct: For all other experiments, the DNA coding for residues 94-312 of T-p53C was inserted into a modified pET24a(+) vector; 6xHis tag + B. stearothermophilus dihydrolipoyl acetyltransferase lipoyl domain (aa 1-85) + TEV site (N, cleaved yes); made in house; host or cells: Escherichia coli BL21 (DE3) or C41 (DE3)
# Procedure: Differential Scanning calorimetry (DSC) was used to probe the stabilising effect of the ligands on […]. For a reversible two-state system, the melting temperature, Tm, is the transition temperature where the folded and unfolded states are equally populated.
# DSC experiments were performed using a Microcal VP-Capillary DSC instrument (Microcal, Amherst, Mass.) with an active cell volume of ˜125 μl. Protein samples were buffer exchanged into 25 mM NaPi, pH 7.2, 150 mM NaCl, 5 mM DTT. This buffer + the respective concentration of ligand/DMSO was used for baseline scans, so that the only difference between sample and reference cell or sample cell in the measurement and both cells in the baseline scan is the presence of the protein. A final concentration of 20 μM T-p53C-Y220C was used. A pressure of 2.5 bars (nitrogen) was applied to the cell. Temperatures from 10 to 85° C. were scanned at a rate of 250° C./h, with a filtering period of 4 seconds and feedback gain/mode set at medium. Data were analysed with ORIGIN software (Microcal).
# The following tables show the results of the thermal denaturation studies using capillary DSC, where ΔTm is the increase in Tm on adding 250 μM of the test compound. The Dunnett significance test (P) value given is the calculated probability that the change in Tm is insignificant.
# [2] = target: T1, T-p53C-Y220C; test: Thermal denaturation using fluorescence (Sypro Orange); format: binding; settings: 10 μM protein
# Procedure: This was by an adaption of the classical procedure (e.g. ref A6). Thermal unfolding was monitored by the binding of the dye Sypro Orange (5×) using a Rotor-gene 6000 (Corbett Life Science) at 270 K/h in 25 mM NaPi, 150 mM NaCl and 5 mM DTT, pH 7.2 with a protein concentration of 10 μM.
# (§1) Where listed, S.E. is the calculated standard error.
# as §1
# [3] = target: T1, T-p53C-Y220C; test: 1H/15N-HSQC NMR chemical shift binding (KD NMR); settings: KD (@ 20° C.) μM, further NMR studies, some revised values
# Procedure: Uniformly ^15N-labelled core domains of T-p53C-Y220C was expressed and purified according to the above described protocol. The low molecular-weight compounds were dissolved in d^6-DMSO to make 10 mM stock solutions. To screen compound mixtures by chemical shift mapping, 10 μl of each of 4 different compounds were mixed together and 25 μl of this mixture was added to 25 μl of D2O and 500 μl of 70 μM T-p53C-Y220C (in 25 mM NaPi, 150 mM NaCl and 5 mM DTT, pH 7.2 ). […] NMR samples were freshly prepared and kept sealed under argon after degassing by repeated cycles of pumping the NMR tube under low pressure (while gently tapping the tube) and returning to atmospheric pressure using a stream of argon gas. This was done to maintain sample stability.
# Using Bruker's TopSpin 2.0 software, the number of complex points in t1 was doubled by forward complex linear prediction and shifted squared sine bell window functions were applied to both dimensions prior to zero filling and Fourier transformation. A digital resolution of 2.0 Hz/point in the ^1H frequency dimension and 4.7 Hz/point in the ^15N frequency dimension was used. […] An in-house script was used to analyse chemical shift differences and map these onto PDB protein structures.
# For certain compounds an array of different concentrations were used to derive KD values (KD NMR) by fitting a saturation binding equation (Δδ=c+a*[L]/(KD+[L])) to the concentration-dependent chemical shift changes of the relevant shifting peaks.
# [4] = further studies on compounds described above
Compound,ΔTm [1] [°C],"ΔTm (° C.) [2, 4] [°C]",Kd [3] [µM],ΔTm (° C.) ([2]; further compounds) [°C]
CCn1c2ccccc2c2cc(CN3CCNCC3)ccc21 [PK198],0.25,0.25,–,–
CCn1c2ccccc2c2cc(CN3CCC(N4CCN(CCO)CC4)CC3)ccc21 [PK205],0.4,0.4,–,–
CCn1c2ccccc2c2cc(CNCCN(C)C)ccc21 [PK207],0.57,0.57,200,–
CCC(CO)NCc1ccc2c(c1)c1ccccc1n2CC (centres unmarked) [PK209],0.79,0.793,97,–
CCn1c2ccccc2c2cc(CNCCO)ccc21 [PK211],0.58,0.58,120,–
CCn1c2ccccc2c2cc(CNCCCn3ccnc3)ccc21 [PK214],–,–,76,0.9
CCn1c2ccccc2c2cc(CN3CCN(C)C(CCO)C3)ccc21 (centres unmarked) [PK217],0.47,0.493,–,–
CCn1c2ccccc2c2cc(CNCCCn3cc(C(=O)N4CCOCC4)nn3)ccc21 [PK219],0.85,0.873,–,–
CCn1c2ccccc2c2cc(CN3CCC4(CC3)CC4C(=O)NCCc3ccccn3)ccc21 (centres unmarked) [PK220],0.64,0.68,–,–
CCn1c2ccccc2c2cc(CN3CCC(n4cc(C(=O)NCCO)nn4)CC3)ccc21 [PK221],0.52,0.54,–,–
Cc1ccc(CN2C[C@@H]3C[C@@H](C)N4CCC[C@@]34C2=O)o1 [PK223],0.38,0.40,–,–
CCn1c2ccccc2c2cc(CN3CCCC(N4CCOCC4)C3)ccc21 (centres unmarked) [PK225],0.53,0.55,–,–
CCn1cc(C(=O)NCc2cccc(NC(=O)C3CC3)c2)c2ccccc21 [PK307],–,–,–,0.26
CCn1cc(C(=O)OCCOc2ccccc2C(C)=O)c2ccccc21 [PK309],–,–,–,0.29
COc1ccc2c(c1)c(C(=O)OCC(=O)Nc1cc(F)ccc1F)c(C)n2C1CC1 [PK310],–,–,–,0.36
CCn1cc(C(=O)OCC2CNC(=O)O2)c2ccccc21 (centres unmarked) [PK311],–,–,–,0.15
CCn1cc(C(=O)NCc2cccc(NC(=O)C3CC3)c2)c2ccccc21 [PK312],–,–,–,0.15
CCn1cc(C(=O)Nc2c(C)nn(C)c2C)c2ccccc21 [PK313],–,–,–,0.28
CCn1cc(C(=O)NCc2cccc(NC(=O)c3ccco3)c2)c2ccccc21 [PK314],–,–,–,0.16
[2H]C(=O)N(C)Cc1nc2ccccc2c(=O)[nH]1 [PK315],–,–,–,0.29
CCn1cc(C(=O)NC(c2cccc(F)c2)c2nccn2C)c2ccccc21 (centres unmarked) [PK317],–,–,–,0.09
CCn1cc(C(=O)Nc2ccn(C)n2)c2ccccc21 [PK318],–,–,–,0.12
CCn1cc(C(=O)OC)c2ccccc21 [PK339],–,–,–,0.4
CCn1c2ccccc2c2cc(CNCCSc3nnnn3C)ccc21 [PK390],–,–,–,0.41
CCn1c2ccccc2c2cc(CNCC(C)O)ccc21 (centres unmarked) [PK391],–,–,–,0.66
CCn1c2ccccc2c2cc(CNCCNCCO)ccc21 [PK392],–,–,–,0.70
CCn1c(C)c(C(=O)NCCN(C)C)c2cc(OC)ccc21 [PK402],–,–,–,0.19
CCOc1ccc2c(c1)c(CCN)cn2CC [PK407],–,–,–,0.29
CCCn1cc(CCN)c2cc(OCC)ccc21 [PK408],–,–,–,0.26

# From patent publication US20110059953A1, “COMPOUNDS FOR USE IN STABILIZING P53 MUTANTS” (priority 2008, published 2011)
